Assay results reported in patent US20110118462A1, “N-HETEROCYCLIC SUBSTITUENT-CONTAINING ANTIBIOTIC, PREPARATION AND USE THEREOF” (priority 2009, published 2011).

Legend:
[1] = tested on: Excrement Enterococcus; experiment: Vitro bacteriostasis experiment, two-fold agar dilution method; assay type: cell-based
Experimental: (§1) Vitro bacteriostasis experiments of Compounds Ia, Ib, and Ic were performed using the two-fold agar dilution method.

[2] = tested on: Haemophilus Influenzae; experiment: as above; assay type: cell-based
Experimental: as §1

[3] = tested on: Moraxella Catarrhalis; experiment: as above; assay type: cell-based
Experimental: as §1

[4] = tested on: Pneumonia Chain Coccus; experiment: as above; assay type: cell-based
Experimental: as §1

[5] = tested on: Shigella; experiment: as above; assay type: cell-based
Experimental: as §1

[6] = tested on: Type A Chain Coccus; experiment: as above; assay type: cell-based
Experimental: as §1

[7] = tested on: Type B Chain Coccus; experiment: as above; assay type: cell-based
Experimental: as §1

[8] = assay type: in vivo; conditions: for t1/2β: single intravenous administration (Ia 50 mg/kg·bw)
Experimental: The inventors conducted preliminary pharmacokinetic study of Compound Ia on Beagle dogs. The Beagle dogs were allowed to drink water freely but not to eat food for 16 hours before and 4 hours after the intravenous injection of 50 mg/kg·bw of the compound. Intravenous blood sampling took place at 0, 0.083, 0.17, 0.25, 0.5, 1, 1.5, 2, 3, 4, 6, 9, 12 hours, respectively, after the injection, each blood sample being 3 mL. Thereafter the dogs were given the drugs every other week and blood samples were taken according to the above manner. The blood samples were added to the centrifuge tubes containing heparin and thoroughly mixed by centrifuging at 4000 rpm for 10 minutes. The blood plasma was separated and an abstraction agent (methanol/ethyl acetate 3:2 V/V) was added to and mixed with it by centrifuging at 10000 rpm for 10 minutes. The top, clear liquid, 20 μL, was taken and analyzed by HPLC.

[9] = Acute toxicity tests on rats; assay type: in vivo; conditions: intravenous injection
[10] = tested on: Excrement Enterococcus; experiment: In-vivo antibacterial activity (protection of rats)
[11] = tested on: Pneumonia Chain Coccus; experiment: as above
[12] = tested on: Moraxella Catarrhalis; experiment: as above
[13] = Muscle stimulation test on rabbits; set-up: species or system New Zealand rabbits; conditions: rabbit, in vivo
From the text: The inventors have conducted the muscle stimulation test of Compounds Ia and II on rabbits. The test is as follows. Eight New Zealand rabbits were divided into three groups. Two groups, containing three rabbits per group, were administrated with Compound Ia and Compound II, respectively. The third group, containing two rabbits, was used as a negative control group. The rabbits were intramuscularly injected with high concentrations of the compounds into the left quadriceps and with low concentration into the right quadriceps. The negative control group was injected with an equal concentration of sodium chloride into the quadriceps of both sides. Each quadriceps was administrated with 1.0 mL once a day for three consecutive days. One or two rabbits from each group were anatomized after 48 hours of the injection. The remaining rabbits were anatomized after the end of the two-week recovery period.

[14] = Stability in aqueous injection solutions at 37° C.; assay type: physicochemical
From the text: (§2) Compared to Compound II, Compound I has better stability in aqueous solution (see Table 2) and in the solid state (See Table 3). Thus Compound I can be stored without freezing or special treatment.

[15] = Stability in the solid state, storage at various temperatures; assay type: physicochemical
From the text: as §2

[16] = pH value of aqueous solution; assay type: physicochemical; conditions: for pH: concentration 0.1 g/mL
Experimental: The pH value of its saturated aqueous solution is 3.2.
At 5° C., sodium carbonate (0.1 g) was dissolved in deionized water (5 mL) in a three-neck flask. Compound II (1 g) was added to the flask with agitation (350 rpm) and the reaction was carried out for 45 minutes. The reaction mixture was discolored with activated carbon and then filtered. The filtration liquid was dropwise added to 80 mL of acetone to precipitate. The precipitation was monitored by an on-line particle analyzing instrument. The mixture was filtered and the solid was washed twice with acetone. Drying under vacuum at 40° C. for 24 hours gave 0.75 g of Compound Ia with a purity of 98.35% (HPLC) and pH 7.3 (concentration 0.1 g/mL).

[17] = Solubility; assay type: physicochemical
From the text: Its chemical name is 7-(α-((N,N-diisopropylamidino)thio)acetylamino)-3-(((1,2,5,6-tetrahydro-2-methyl-5,6-dioxo-1,2,4-triazin-3-yl)thio)methyl) cephalosporanic acid mono sodium salt (Compound Ia).

[18] = healthy Beagle dogs, single intravenous administration 50 mg/kg·bw

CC(C)N(C(=N)SCC(=O)NC1C(=O)N2C(C(=O)[O-])=C(CSc3nc(=O)c(=O)[nH]n3C)CSC12)C(C)C.[Na+] (stereo not drawn) [Compound Ia, 7-(α-((N,N-diisopropylamidino)thio)acetylamino)-3-(((1,2,5,6-tetrahydro-2-methyl-5,6-dioxo-1,2,4-triazin-3-yl)thio)methyl) cephalosporanic acid mono sodium salt]
MIC90 [1]: 8 mg/L
MIC90 [2]: 0.5 mg/L
MIC90 [3]: 1 mg/L
MIC90 [4]: 0.125 mg/L
MIC90 [5]: 4 mg/L
MIC90 [6]: 0.5 mg/L
MIC90 [7]: 0.0625 mg/L
AUC [8, 18]: 108.29 ± 18.17 µg·h/mL
CIB [8, 18]: 047 ± 0.09 L/h/kg
V1 [8, 18]: 0.25 ± 0.07 L/kg
VB [8, 18]: 1.61 ± 0.30 L/kg
t1/2α [8, 18]: 37.8 ± 7.2 min
Cmax ([8]; healthy Beagle dogs, single intravenous administration 50 mg/kg·bw, plasma): 116.35 ± 12.06 µg/mL
drug concentration after 12 hours of the administration ([8]; healthy Beagle dogs, single intravenous administration 50 mg/kg·bw, plasma, 12 hours): 0.39 ± 0.09 µg/mL
t1/2β ([8]; healthy Beagle dogs): 155 ± 2.4 min
LD50 [9]: 1747.6 mg/kg
protection for rats against Excrement Enterococcus [10]: excellent protection
protection for rats against Pneumonia Chain Coccus [11]: excellent protection
protection for rats against Moraxella Catarrhalis [12]: excellent protection
muscle irritation observed [13]: slight irritation
content in aqueous injection solution ([14]; 0 hr): 98.60%
content in aqueous injection solution ([14]; 0.2 hr): 98.60%
content in aqueous injection solution ([14]; 1 hr): 97.98%
content in aqueous injection solution ([14]; 2 hr): 97.79%
content in aqueous injection solution ([14]; 3 hr): 97.24%
content in aqueous injection solution ([14]; 4 hr): 97.13%
content after 72 hours in storage ([15]; 10° C.): 96.9%
content after 72 hours in storage ([15]; 40° C.): 96.6%
content after 72 hours in storage ([15]; 60° C.): 96.4%
content after 72 hours in storage ([15]; −5° C.): 97.0%
pH [16]: 7.3
pH value ([16]; concentration not given): 7.3
solubility in acetone [17]: not readily soluble
solubility in anhydrous ethanol [17]: not readily soluble
solubility in methanol [17]: readily soluble
solubility in water [17]: readily soluble

CC(C)N=C(NC(C)C)SCC(=O)NC1C(=O)N2C(C(=O)[O-])=C(CSc3nc(=O)c(=O)[nH]n3C)CSC12.CC(C)N=C(NC(C)C)SCC(=O)NC1C(=O)N2C(C(=O)[O-])=C(CSc3nc(=O)c(=O)[nH]n3C)CSC12.[Na+].[Na+] (stereo not drawn) [Compound Ib, disodium 7-(α-((N,N′-diisopropylamidino)thio)acetylamino)-3-(((1,2,5,6-tetrahydro-2-methyl-5,6-dioxo-1,2,4-triazin-3-yl)thio)methyl) cephalosporanate]
MIC90 [1]: 4 mg/L
MIC90 [2]: 0.5 mg/L
MIC90 [3]: 0.5 mg/L
MIC90 [4]: 0.5 mg/L
MIC90 [5]: 4 mg/L
MIC90 [6]: 0.1 mg/L
MIC90 [7]: 0.0125 mg/L
content in aqueous injection solution ([14]; 0 hr): 98.80%
content in aqueous injection solution ([14]; 0.2 hr): 98.54%
content in aqueous injection solution ([14]; 1 hr): 97.14%
content in aqueous injection solution ([14]; 2 hr): 96.66%
content in aqueous injection solution ([14]; 3 hr): 95.21%
content in aqueous injection solution ([14]; 4 hr): 94.30%
pH [16]: 10.02

CC(C)N(C(=N)SCC(=O)NC1C(=O)N2C(C(=O)[O-])=C(CSc3nc(=O)c(=O)[nH]n3C)CSC12)C(C)C.[K+] (stereo not drawn) [Compound Ic, 7-(α-((N,N-diisopropylamidino)thio)acetylamino)-3-(((1,2,5,6-tetrahydro-2-methyl-5,6-dioxo-1,2,4-triazin-3-yl)thio)methyl) cephalosporanic acid monopotassium salt]
MIC90 [1]: 8 mg/L
MIC90 [2]: 0.5 mg/L
MIC90 [3]: 0.5 mg/L
MIC90 [4]: 0.5 mg/L
MIC90 [5]: 4 mg/L
MIC90 [6]: 0.1 mg/L
MIC90 [7]: 0.0156 mg/L

CC(=O)OCC1=C(C(=O)O)N2C(=O)[C@@H](NC(=O)CSC(=NC(C)C)NC(C)C)[C@H]2SC1 [cefathiamidine, reference compound]
biological half-life in blood ([8]; Beagle dogs, preliminary pharmacokinetic study): 0.65 hours
t1/2β ([8]; healthy Beagle dogs): 39 ± 1.8 min
LD50 [9]: 824.2 mg/kg
